Results taken from patent US9359196B2, “Antiproliferative compositions comprising curcumin analogs and methods of producing and using same” (The Board of Regents of the University of Oklahoma, priority 2009, dated 2016).

Tests used:
H441 cells [1] = assay: Illumina microarray gene expression analysis of H441 cells; assay type: cell-based, human; conditions: H441, 1 μM, 12 hours
Description: RNA Extraction and microarray sample processing: H441 cells were seeded in […] tissue culture plates at a density of 1×10^6 cells per well. The cells were allowed to attach and grow overnight and then treated with CLEFMA (n=5) at 1 μM in culture medium supplemented with 5% FBS. The DMSO concentration was maintained at 0.1% per well. Control wells (n=5) received equivalent volumes of DMSO without any test compound. The cells were kept in the treatment medium for 12 hours, after which the cells were washed twice with ice-cold Dulbecco's phosphate buffered saline (PBS). The total RNA was extracted using the RNAeasy kit (Qiagen, CA) as per the manufacturer's instructions. The quality of RNA was ascertained by the Nanodrop 2000 spectrophotometer (NanoDrop products, Wilmington, Del.).
The expression of >48,000 genes were compared using Illumina Human WG-6 v3 arrays. Hybridization to Illumina microarrays was performed at the Oklahoma Medical Research Foundation (Oklahoma City, USA). RNA (250 ng) from each sample was labeled using the Illumina Total Prep RNA Amplification Kit following the manufacturer's directions (Ambion, Austin, Tex.). Briefly, cDNA was reverse transcribed from RNA after priming with T7-oligo-dT, and cRNA was synthesized from the T7 promoter while incorporating biotinylated UTP. The cRNA was then hybridized overnight to Illumina BeadChips, and the microarray chips were washed with high stringency and labeled with streptavidin-Cy3 (Amersham Biosciences; Piscataway, N.J.) prior to scanning on an Illumina BeadArray Reader.
Microarray Data Analysis: The Illumina WG-6_v3 array data for each experimental condition were exported from the BeadStudio Software for further analysis. The data were normalized as described previously [Dozmorov et al., 2004; Dozmorov et al., 2009] using the variability of low-expressing genes as a reference point. In order to find genes expressed above the level of technical noise, a frequency histogram of raw expression values was examined for each array. The histogram yielded a right-skewed unimodal distribution curve with a mode of approximately 75. A normal distribution curve representing the variability of the data around zero was then fitted around the mode, mirroring the Gaussian profile of the left part of the histogram. Its parameters were then defined (mean and standard deviation (SD)) and the data were normalized to the standard deviation of the noise after subtraction of the mean. […] The data were then filtered to remove genes with an expression value less than 3.0. This is equivalent to setting a threshold at 3 SD above the noise level. The genes that expressed below the noise level under all experimental conditions (approximately 1,600) were excluded from consideration, as their expression could not be reliably assessed. Full microarray data were deposited in the Gene Expression Omnibus (GEO, GSE23420) and are accessible on the GEO web site.
To identify differentially expressed genes between two experimental groups, the associative analysis as described elsewhere [Dozmorov et al., 2009] was used. Briefly, a reference group of genes expressed above background with low variability of expression in pooled microarray datasets was identified by an F-test. […] For the genes with statistically significant variability above the random, the variations were assumed to have biological reasons. An associative t-test was applied to investigate if a given gene belongs to a certain group. […]

H441 cells [2] = assay: Reactive oxygen species assay (DCFH-DA) in H441 cells; assay type: cell-based, human; conditions: 24 and 48 h
Description: Reactive oxygen species (ROS) assay: The CLEFMA-induced generation of ROS in H441 and CCL-151 cells was measured using the OxiSelect assay kit (Cell Biolabs, Inc., San Diego, Calif.). Briefly, the cells were cultured in 96-well plates, and the cell-permeable fluorogenic probe 2′,7′-dichlorodihydrofluorescin diacetate (DCFH-DA) was added to the wells and the plate was incubated for 30-60 min. The wells were washed thrice with PBS and treated with CLEFMA in culture medium for 24 and 48 h. After the incubation period, the medium was removed and the cells were gently washed 2-3 times with PBS, and the fluorescence, indicating ROS activity, was measured at 480 nm/530 nm (excitation/emission wavelengths) using the Cytoflour 2300 (Millipore, Billerica, Mass.).

[3] = tested on: MiaPaCa-2 (pancreatic cancer) cells; assay: Cell proliferation study in MiaPaCa-2 cells; assay type: cell-based
Description: Cell Culture and drug treatment: Human lung adenocarcinoma cell line NCI-H441 (ATCC Number: HTB-174) was obtained from the American Type Culture Collection (Manassas, Va.). H441 cells were maintained at 37° C. with 5% CO2 in McCoy's 5A Medium (Invitrogen, Carlsbad, Calif.) supplemented with 5% heat-inactivated fetal bovine serum (FBS). All media contained gentamicin at 50 μg/ml (GIBCO Laboratories, Grand Island, N.Y.). Other cells lines (PANC-1, MiaPaCa-2 and PC-3) were also similarly maintained, except that the cell culture medium was RPMI 1640 instead of McCoy's.
To evaluate the anti-proliferative activity of synthesized bis(2-fluorobenzylidene)-4-piperidone and its derivatives, the cells were seeded in 96-well flat-bottom tissue culture plates at a density of 10×10^3 cells per well. The cells were allowed to attach and grow overnight. The test compounds were solubilized in dimethyl sulfoxide (DMSO), filtered through 0.2 μm nylon filter and added to cells at 1, 10, 25 and 100 μM concentrations in culture medium supplemented with 5% FBS. […]
Cell Proliferation: The total number of cells after the treatment period was estimated by the hexosaminidase assay. […] The absorbance was measured at 405 nm. […] The data were analyzed as percent of control, where the control wells were treated with equivalent amounts of DMSO alone, and the analyzed data was presented as average±standard error of mean. […]

O=C(O)C=CC(=O)N1CC(=Cc2ccccc2Cl)C(=O)C(=Cc2ccccc2Cl)C1 [Compound 29, 4-[3,5-Bis-(2-chlorobenzylidene)-4-oxo-piperidin-1-yl]-4-oxo-2-butenoic acid]
GAPDH expression increase (H441 cells [1]): 1.3 fold
HMOX1 expression increase (H441 cells [1]): 5.3 fold
SOD1 expression increase (H441 cells [1]): 1.3 fold
SULTA1 expression increase (H441 cells [1]): 3.8 fold
SULTA2 expression increase (H441 cells [1]): 8.5 fold
ROS generation (H441 cells [2]): generated ROS in a dose- and time-dependent fashion
potency of antiproliferative action [3]: enhanced the potency of antiproliferative action
